# Data from article PMC3127977, “No relevant cardiac, pharmacokinetic or safety interactions between roflumilast and inhaled formoterol in healthy subjects: an open-label, randomised, actively controlled study” (BMC Clinical Pharmacology, 2011).
# How the values were obtained:
# healthy subjects [1] = test: Transthoracic impedance cardiography (ZCG) and systolic time intervals in healthy men; oral roflumilast 500 μg once daily, inhaled formoterol 24 μg twice daily; conditions: Regimen B
# Description: (§1) For Regimen A, subjects received 500 μg oral roflumilast once daily (daily dose: one tablet of roflumilast 500 μg) from the morning of Day 2 to the morning of Day 18. […] For Regimen B, subjects received 24 μg formoterol for oral inhalation delivered by a DPI device (Foradil® P) twice daily, once in the morning and once in the evening from the morning of Day 2 to the evening of Day 18.
# Cardiovascular effects were evaluated non-invasively by means of ECGs (cardiac rhythm, intra-cardiac conduction and ventricular repolarisation), oscillometric blood pressure and transthoracic impedance cardiography (ZCG; systolic time intervals, contractility indices and estimates of stroke volume and cardiac output). Cardiovascular assessments (oscillometric blood pressure, pulse rate, 12-lead ECG, and three-lead ZCG) were recorded before dosing and at 10, 20, 40 and 60 minutes, and at 2, 3, 4, 5, 6, 7 and 8 hours after morning dosing. […] All cardiovascular measurements were carried out after the subjects had been recumbent for at least 10 minutes; they generally stayed in bed from 1 hour before until 8 hours after morning dosing.
# Systolic time intervals (STIs) and ZCG estimates of the systolic cardiac pump performance were derived from the simultaneous registration of a one-lead ECG, a phonocardiogram (PCG), and the rate of change of the transthoracic impedance (dZ/dt) to an AC current applied through the thoracic cage (CARDIODYNAGRAPH; Diefenbach GmbH, Wiesbaden, Germany). Tracings were captured and stored digitally during the study and subsequently analysed after the study by displaying the analogue ECG, PCG and ZCG signals on a computer screen. The relevant signal amplitudes and time intervals were delineated manually by operator-steered cursors; measurements were made for at least 10 artefact-free consecutive cardiac cycles. From these tracings, the following variables were derived by direct measurement: RR interval (ms), total electromechanic systole (QS2 [ms]), ventricular ejection time (VET [ms]), baseline transthoracic impedance (Z0 [Ω]), and maximum negative velocity of transthoracic impedance changes during the cardiac cycle (dZ/dtmax [Ω/s]). These variables were analysed for the 10 cycles and their means were used in the calculations of the following variables: heart rate (HR [bpm]), pre-ejection period (PEP [ms] = QS2 - VET), HR-corrected STIs (STIc and STIi according to Weissler et al.), ZCG estimates of stroke volume (SV [mL] according to Kubicek's equation [37] using the equation of Geddes and Sadler for the specific resistance of blood), cardiac output (CO [mL/min]), and total peripheral resistance (TPR [dyn.s.cm^-5]). For the latter variable, the mean blood pressure (MBP [mmHg]) was used as calculated according to Wezler and Böger from the systolic blood pressure (mmHg) and the diastolic blood pressure (mmHg).
# ZCG analysis was carried out by a single analyst who was blinded with regard to subject, study regimen, profiling day within regimen, and time during the day.
# [2] = cited from earlier work
# [3] = system: human parenchymal and bronchial explants; conditions: in vitro; cited from earlier work
# healthy subjects [4] = test: Adverse event monitoring; format: in vivo, human
# Source text: Blood and urine samples for conventional clinical laboratory safety tests were obtained at the screening visit, in the morning of each main profiling day, and on Day 19. Adverse events (AEs) were monitored throughout the study.
# healthy subjects [5] = test: Digital 12-lead electrocardiography (HR, QT, QTc); format: in vivo, human
# Description: Digital 12-lead ECGs were recorded immediately after each ZCG recording. Tracings were analysed off-study by regimen-blinded qualified analysts, using previously reported methodology. For each time point, three cycles were measured with regard to the RR, PQ and QT-intervals [ms]. The means of the three measurements were used for the calculation of HR and HR-corrected QTc intervals, according to Bazett's equation (QTcB = QT/RR^1/2) and Fridericia's equation (QTcF = QT/RR^1/3).
# [6] = Serum potassium concentration on profiling days; conditions: Regimen B, Day 8
# Source text: (§2) During the main profiling days, blood was sampled at each ZCG time point for the determination of serum glucose and potassium concentrations.
# [7] = Serum glucose concentration on profiling days; conditions: Regimen B, throughout Day 8 compared with Day 1
# Source text: as §2
# [8] = Steady-state plasma pharmacokinetics (HPLC-MS/MS) in healthy men; oral roflumilast 500 μg once daily, inhaled formoterol 24 μg twice daily; conditions: for Cmax: Cmax (formoterol)
# Description: as §1
# Pre-dose blood samples for determination of trough levels were taken on Days 9 and 10 for Regimen A (morning only), and on Days 6 and 7 (morning and evening) for Regimen B. Blood samples (4.5 mL) were collected in heparinised tubes and plasma was obtained by centrifugation at 1550 g for 15 minutes. Plasma samples were stored at -20°C or below for roflumilast, and at -70°C for formoterol. Plasma concentrations of roflumilast and roflumilast N-oxide were determined using high-performance liquid chromatography coupled with tandem mass spectrometry (HPLC-MS/MS). […] Roflumilast and roflumilast N-oxide standard curves were valid up to 20 ng/mL and 40 ng/mL, respectively. Determination of roflumilast and roflumilast N-oxide was performed at Altana Pharma AG, Konstanz, Germany (Nycomed GmbH). Plasma concentrations of formoterol were determined using HPLC-MS/MS. The LLOQ in plasma was 0.4 pg/mL using a sample volume of 1.0 mL. […] Determination of formoterol was performed at pharm-analyt Labor GmbH, Baden, Austria, under the supervision of Altana Pharma AG(Nycomed GmbH).
# For roflumilast, roflumilast N-oxide and formoterol, the maximum plasma concentration (Cmax) was derived directly from the plasma concentrations. The AUC from time zero to the time of the last quantifiable concentration, which corresponded to the dosing interval of each analyte (AUC0-τ), was estimated using the linear trapezoidal method. Apparent clearance at steady state (CL/F; calculated by dose/AUCτ) was reported for roflumilast only. […] The calculation of tPDE4i was based on the equation described in Lahu et al..
# [9] = cited from earlier work; remark: listed apart in the source
compound,measurement,setting,value
COc1ccc(CC(C)NCC(O)c2ccc(O)c(NC=O)c2)cc1 (centres unmarked) [Formoterol],"CO, Day 1-matched post-dose maximum dmax (δ), median",healthy subjects [1]; Day 8 (F),2.9 L/min
same,"CO, Day 1-matched post-dose minimum dmin (δ), median",healthy subjects [1]; Day 8 (F),-0.6 L/min
same,"CO, untransformed post-dose maximum dmax (U), median",healthy subjects [1]; Day 8 (F),11.8 L/min
same,"CO, untransformed post-dose minimum dmin (U), median",healthy subjects [1]; Day 8 (F),8.2 L/min
same,"CO, untransformed pre-dose morning value, median",healthy subjects [1]; Day 8 (F),9.7 L/min
same,"HR, Day 1-matched post-dose maximum dmax (δ), median",healthy subjects [1]; Day 8 (F),16 bpm
same,"HR, Day 1-matched post-dose minimum dmin (δ), median",healthy subjects [1]; Day 8 (F),-2 bpm
same,"HR, untransformed post-dose maximum dmax (U), median",healthy subjects [1]; Day 8 (F),72 bpm
same,"HR, untransformed post-dose minimum dmin (U), median",healthy subjects [1]; Day 8 (F),62 bpm
same,"HR, untransformed pre-dose morning value, median",healthy subjects [1]; Day 8 (F),66 bpm
same,"PEP, Day 1-matched post-dose maximum dmax (δ), median",healthy subjects [1]; Day 8 (F),25 ms
same,"PEP, Day 1-matched post-dose minimum dmin (δ), median",healthy subjects [1]; Day 8 (F),-26 ms
same,"PEP, untransformed post-dose maximum dmax (U), median",healthy subjects [1]; Day 8 (F),117 ms
same,"PEP, untransformed post-dose minimum dmin (U), median",healthy subjects [1]; Day 8 (F),84 ms
same,"PEP, untransformed pre-dose morning value, median",healthy subjects [1]; Day 8 (F),97 ms
same,"QS2, Day 1-matched post-dose maximum dmax (δ), median",healthy subjects [1]; Day 8 (F),13 ms
same,"QS2, Day 1-matched post-dose minimum dmin (δ), median",healthy subjects [1]; Day 8 (F),-47 ms
same,"QS2, untransformed post-dose maximum dmax (U), median",healthy subjects [1]; Day 8 (F),440 ms
same,"QS2, untransformed post-dose minimum dmin (U), median",healthy subjects [1]; Day 8 (F),408 ms
same,"QS2, untransformed pre-dose morning value, median",healthy subjects [1]; Day 8 (F),431 ms
same,"TPR, Day 1-matched post-dose maximum dmax (δ), median",healthy subjects [1]; Day 8 (F),61 dyn.s.cm^-5
same,"TPR, Day 1-matched post-dose minimum dmin (δ), median",healthy subjects [1]; Day 8 (F),-221 dyn.s.cm^-5
same,"TPR, untransformed post-dose maximum dmax (U), median",healthy subjects [1]; Day 8 (F),882 dyn.s.cm^-5
same,"TPR, untransformed post-dose minimum dmin (U), median",healthy subjects [1]; Day 8 (F),561 dyn.s.cm^-5
same,"TPR, untransformed pre-dose morning value, median",healthy subjects [1]; Day 8 (F),668 dyn.s.cm^-5
same,"dZ/dt, Day 1-matched post-dose maximum dmax (δ), median",healthy subjects [1]; Day 8 (F),0.32 Ω/s
same,"dZ/dt, Day 1-matched post-dose minimum dmin (δ), median",healthy subjects [1]; Day 8 (F),-0.29 Ω/s
same,"dZ/dt, untransformed post-dose maximum dmax (U), median",healthy subjects [1]; Day 8 (F),2.10 Ω/s
same,"dZ/dt, untransformed post-dose minimum dmin (U), median",healthy subjects [1]; Day 8 (F),1.64 Ω/s
same,"dZ/dt, untransformed pre-dose morning value, median",healthy subjects [1]; Day 8 (F),1.94 Ω/s
same,"CO, dmax (U), point estimate (95% CI) of difference between days",healthy subjects [1]; Day 8-Day 1,1.7 (0.6 to 2.6) L/min
same,"CO, dmin (U), point estimate (95% CI) of difference between days",healthy subjects [1]; Day 8-Day 1,0.5 (-0.5 to 1.4) L/min
same,"CO, untransformed pre-dose morning value, point estimate (95% CI) of difference between days",healthy subjects [1]; Day 8-Day 1,0.7 (-0.9 to 2.0) L/min
same,"HR, dmax (U), point estimate (95% CI) of difference between days",healthy subjects [1]; Day 8-Day 1,9 (5 to 11) bpm
same,"HR, dmin (U), point estimate (95% CI) of difference between days",healthy subjects [1]; Day 8-Day 1,7 (3 to 10) bpm
same,"HR, untransformed pre-dose morning value, point estimate (95% CI) of difference between days",healthy subjects [1]; Day 8-Day 1,5 (2 to 9) bpm
same,"PEP, dmax (U), point estimate (95% CI) of difference between days",healthy subjects [1]; Day 8-Day 1,-4 (-14 to 2) ms
same,"PEP, dmin (U), point estimate (95% CI) of difference between days",healthy subjects [1]; Day 8-Day 1,0 (-7 to 6) ms
same,"PEP, untransformed pre-dose morning value, point estimate (95% CI) of difference between days",healthy subjects [1]; Day 8-Day 1,-7 (-22 to 7) ms
same,"QS2, dmax (U), point estimate (95% CI) of difference between days",healthy subjects [1]; Day 8-Day 1,-14 (-27 to 4) ms
same,"QS2, dmin (U), point estimate (95% CI) of difference between days",healthy subjects [1]; Day 8-Day 1,-13 (-22 to -3) ms
same,"QS2, untransformed pre-dose morning value, point estimate (95% CI) of difference between days",healthy subjects [1]; Day 8-Day 1,-4 (-18 to 9) ms
same,"TPR, dmax (U), point estimate (95% CI) of difference between days",healthy subjects [1]; Day 8-Day 1,-49 (-160 to 80) dyn.s.cm^-5
same,"TPR, dmin (U), point estimate (95% CI) of difference between days",healthy subjects [1]; Day 8-Day 1,-96 (-188 to -24) dyn.s.cm^-5
same,"TPR, untransformed pre-dose morning value, point estimate (95% CI) of difference between days",healthy subjects [1]; Day 8-Day 1,-18 (-198 to 70) dyn.s.cm^-5
same,"dZ/dt, dmax (U), point estimate (95% CI) of difference between days",healthy subjects [1]; Day 8-Day 1,0.01 (-0.15 to 0.21) Ω/s
same,"dZ/dt, dmin (U), point estimate (95% CI) of difference between days",healthy subjects [1]; Day 8-Day 1,0.03 (-0.13 to 0.17) Ω/s
same,"dZ/dt, untransformed pre-dose morning value, point estimate (95% CI) of difference between days",healthy subjects [1]; Day 8-Day 1,0.06 (-0.07 to 0.19) Ω/s
same,drug-drug interaction with roflumilast,"[2]; orally co-administered formoterol, Phase I study, ref unpublished data, Nycomed GmbH, 2002",no apparent drug-drug interaction
same,inhibitory effect of roflumilast on cytokine and tumour necrosis factor-α production,[3],increased
same,number of AEs,"healthy subjects [4]; Regimen B, Day 2 to Day 8",no AEs were reported
same,tremor,healthy subjects [4]; administered alone (Regimens A and B respectively),not observed
same,HR (ECG),healthy subjects [5]; 12-lead ECG,slight increase
same,"QTc values, uncorrected or corrected using Bazett's or Fridericia's formula",healthy subjects [5]; 12-lead ECG,no clinically relevant changes
same,duration of the QT interval,healthy subjects [5]; 12-lead ECG,decrease
same,QT/QTc intervals,"healthy subjects [5]; all subjects, all regimens",below 450 ms
same,pre-dose serum potassium concentration,[6],4.38 mmol/L
same,post-dose serum glucose,[7],slight post-dose increase
same,changes in steady-state pharmacokinetics when the other drug was added,"[8]; formoterol added to roflumilast, or roflumilast added to formoterol",no changes
same,Cmax,"[8]; male, human, in vivo, 24 μg, steady state, Regimen B Day 8 (formoterol alone), geometric mean (68% range)",16.7 ng/mL
same,AUC,"[8]; male, human, in vivo, AUCτ (formoterol), steady state, Regimen A Day 18 (roflumilast plus formoterol), geometric mean (68% range)",93.2 ng·h/mL
same,Cmax,"[8]; male, human, in vivo, steady state, Regimen A Day 18 (roflumilast plus formoterol), geometric mean (68% range)",18.7 ng/mL
same,Cmax,"[8]; male, human, in vivo, steady state, Regimen B Day 18 (formoterol plus roflumilast), geometric mean (68% range)",17.2 ng/mL
same,Ctrough (formoterol),"[8]; steady state, Regimen A Day 18 (roflumilast plus formoterol), geometric mean (68% range)",4.23 (2.43-7.38) μg/L
same,Ctrough (formoterol),"[8]; steady state, Regimen B Day 8 (formoterol alone), geometric mean (68% range)",4.12 (3.05-5.57) μg/L
same,Ctrough (formoterol),"[8]; steady state, Regimen B Day 18 (formoterol plus roflumilast), geometric mean (68% range)",3.94 (3.13-4.96) μg/L
O=C(Nc1c(Cl)c[n+]([O-])cc1Cl)c1ccc(OC(F)F)c(OCC2CC2)c1 [Roflumilast N-oxide],AUC greater than that of roflumilast,[9],10 fold
same,median effective plasma half-life,[9]; repeated dose,30 h
same,median time to maximum plasma concentration (tmax),[9]; repeated dose,8 h
same,changes in steady-state pharmacokinetics when the other drug was added,[8]; in vivo,no relevant changes
CCCC1O[C@@H]2C[C@H]3[C@@H]4CCC5=CC(=O)C=C[C@]5(C)[C@H]4[C@@H](O)C[C@]3(C)[C@]2(C(=O)CO)O1 (some centres unmarked) [budesonide],pharmacokinetic interaction on co-administration with roflumilast,[2]; healthy volunteers,no relevant pharmacokinetic interactions
